Results: PubChem BioAssay AID652228 (The Scripps Research Institute Molecular Screening Center, 2013)
The source made the active and inactive calls.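 Rule for the calls: active = protein phosphatase 1 activity cut by at least 70% at 50 µM; inactive = inhibition below 70%.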

Molecular target: Serine/threonine-protein phosphatase PP1-alpha catalytic subunit (Homo sapiens) (UniProt P62136)
Test: PP1alpha phosphatase inhibitors, histone substrate – biochemical, radiolabel, single concentration, powder samples, late-stage follow-up (AID 652228)
Settings: purified PP1alpha, 33P-phosphohistone dephosphorylation, scintillation; at 50 µM; stronger effect = higher value

Chain of Serine/threonine-protein phosphatase PP1-alpha catalytic subunit (Homo sapiens) (P62136 whole entry, looked up): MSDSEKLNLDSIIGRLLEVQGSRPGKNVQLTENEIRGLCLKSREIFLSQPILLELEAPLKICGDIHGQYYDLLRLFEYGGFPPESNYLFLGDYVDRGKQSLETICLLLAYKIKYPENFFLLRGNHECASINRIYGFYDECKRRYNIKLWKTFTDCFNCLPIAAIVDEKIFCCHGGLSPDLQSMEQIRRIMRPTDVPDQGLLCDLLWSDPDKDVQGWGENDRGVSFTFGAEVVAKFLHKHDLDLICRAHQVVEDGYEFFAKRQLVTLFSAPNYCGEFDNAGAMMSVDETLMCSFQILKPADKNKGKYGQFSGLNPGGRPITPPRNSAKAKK

Row | inhibition | SMILES
1 | 12.6% (inactive) | Oc1c(CN2CCN(c3ccccn3)CC2)cc(Cl)c2cccnc12
2 | 2.44% (inactive) | CN1CCN(C(c2ccccn2)c2cc(Cl)ccc2O)CC1 (stereo not given)
3 | -51.6% (inactive) | CCN1CCN(C(c2ccccn2)c2cc(Cl)c3cccnc3c2O)CC1 (stereo not given)
4 | 4.17% (inactive) | CN1CCN(C(c2ccncc2)c2cc(Cl)c3cccnc3c2O)CC1 (stereo not given)
5 | 18.5% (inactive) | Oc1c(CN2CCN(c3ccccc3)CC2)cc(Cl)c2cccnc12
6 | -38.1% (inactive) | CN1CCN(C(c2ccccn2)c2cc(Cl)c3cccnc3c2O)CC1 (stereo not given)
7 | 4.84% (inactive) | CN1CCN(C(c2ccccc2)c2cc(Cl)c3cccnc3c2O)CC1 (stereo not given)
8 | 35.7% | Oc1c(C(c2ccccn2)N2CCN(c3ccccc3F)CC2)cc(Cl)c2cccnc12 (stereo not given)
9 | 59% | Oc1c(C(c2ccccn2)N2CCNCC2)cc(Cl)c2cccnc12 (stereo not given)
10 | 15.6% (inactive) | CCOC(c1ccccn1)c1cc(Cl)c2cccnc2c1O (stereo not given)
11 | 43.2% | CC1CCN(C(c2ccccn2)c2cc(Cl)c3cccnc3c2O)CC1 (stereo not given)
12 | 10% (inactive) | CN1CCN(C(c2cccnc2)c2cc(Cl)c3cccnc3c2O)CC1 (stereo not given)
13 | 5.68% (inactive) | CN1CCN(C(c2ccccn2)c2cc(Cl)c3ccccc3c2O)CC1 (stereo not given)
14 | 57.4% | Oc1c(C(c2ccccn2)N2CCC(Cc3ccccc3)CC2)cc(Cl)c2cccnc12 (stereo not given)
15 | 49.1% | CC(C)(C)OC(=O)N1CCN(C(c2ccccn2)c2cc(Cl)c3cccnc3c2O)CC1 (stereo not given)
